# Test results as given in ChEMBL document CHEMBL6134788, “Development of naphthalimide hydrazide derivatives as potent antibacterial agents against carbapenem-resistant A. baumannii” (RSC Med Chem, 2024).
# Assays:
# Assay type in all cases: functional
# Conditions in all cases: time 16-18 hrs, read-out: MIC100
# [1] = test system: Escherichia coli; test: Antibacterial activity against Escherichia coli ATCC 25922 assessed as inhibition of bacterial growth incubated for 16 to 18 hrs by CLSI protocol based method
# [2] = test system: Klebsiella pneumoniae; test: Antibacterial activity against Klebsiella pneumoniae BAA 1705 assessed as inhibition of bacterial growth incubated for 16 to 18 hrs by CLSI protocol based method
# [3] = test system: Acinetobacter baumannii; test: Antibacterial activity against carbapenem-resistant Acinetobacter baumannii BAA 1605 assessed as inhibition of bacterial growth incubated for 16 to 18 hrs by CLSI protocol based method
# [4] = test system: Staphylococcus aureus; test: Antibacterial activity against Staphylococcus aureus ATCC 29213 assessed as inhibition of bacterial growth incubated for 16 to 18 hrs by CLSI protocol based method
# [5] = test system: Pseudomonas aeruginosa; test: Antibacterial activity against Pseudomonas aeruginosa ATCC 27853 assessed as inhibition of bacterial growth incubated for 16 to 18 hrs by CLSI protocol based method
# [6] = test system: Acinetobacter baumannii; test: Antibacterial activity against multi-drug resistant Acinetobacter baumannii Naval-81 assessed as inhibition of bacterial growth incubated for 16 to 18 hrs by CLSI protocol based method
# [7] = test system: Acinetobacter baumannii; test: Antibacterial activity against multi-drug resistant Acinetobacter baumannii H72721 assessed as inhibition of bacterial growth incubated for 16 to 18 hrs by CLSI protocol based method
# [8] = test system: Acinetobacter baumannii; test: Antibacterial activity against multi-drug resistant Acinetobacter baumannii Naval-18 assessed as inhibition of bacterial growth incubated for 16 to 18 hrs by CLSI protocol based method
# [9] = test system: Acinetobacter baumannii; test: Antibacterial activity against multi-drug resistant Acinetobacter baumannii 5-189 assessed as inhibition of bacterial growth incubated for 16 to 18 hrs by CLSI protocol based method
# [10] = test system: Acinetobacter baumannii; test: Antibacterial activity against multi-drug resistant Acinetobacter baumannii clinical isolate 3 assessed as inhibition of bacterial growth incubated for 16 to 18 hrs by CLSI protocol based method
# [11] = test system: Acinetobacter baumannii; test: Antibacterial activity against multi-drug resistant Acinetobacter baumannii 5-143 assessed as inhibition of bacterial growth incubated for 16 to 18 hrs by CLSI protocol based method
# [12] = test system: Acinetobacter baumannii; test: Antibacterial activity against multi-drug resistant Acinetobacter baumannii clinical isolate 1 assessed as inhibition of bacterial growth incubated for 16 to 18 hrs by CLSI protocol based method
# [13] = test system: Acinetobacter baumannii; test: Antibacterial activity against multi-drug resistant Acinetobacter baumannii clinical isolate 6 assessed as inhibition of bacterial growth incubated for 16 to 18 hrs by CLSI protocol based method
# [14] = test system: Acinetobacter baumannii; test: Antibacterial activity against multi-drug resistant Acinetobacter baumannii clinical isolate 8 assessed as inhibition of bacterial growth incubated for 16 to 18 hrs by CLSI protocol based method
# [15] = test system: Acinetobacter baumannii; test: Antibacterial activity against multi-drug resistant Acinetobacter baumannii WL-487 assessed as inhibition of bacterial growth incubated for 16 to 18 hrs by CLSI protocol based method
# [16] = test system: Acinetobacter baumannii; test: Antibacterial activity against multi-drug resistant Acinetobacter baumannii clinical isolate 5 assessed as inhibition of bacterial growth incubated for 16 to 18 hrs by CLSI protocol based method
# [17] = test system: Acinetobacter baumannii; test: Antibacterial activity against multi-drug resistant Acinetobacter baumannii BC-5 assessed as inhibition of bacterial growth incubated for 16 to 18 hrs by CLSI protocol based method
# [18] = test system: Acinetobacter baumannii; test: Antibacterial activity against multi-drug resistant Acinetobacter baumannii clinical isolate 7 assessed as inhibition of bacterial growth incubated for 16 to 18 hrs by CLSI protocol based method
# [19] = test system: Acinetobacter baumannii; test: Antibacterial activity against multi-drug resistant Acinetobacter baumannii Naval-17 assessed as inhibition of bacterial growth incubated for 16 to 18 hrs by CLSI protocol based method
# [20] = test system: Acinetobacter baumannii; test: Antibacterial activity against multi-drug resistant Acinetobacter baumannii 5-109 assessed as inhibition of bacterial growth incubated for 16 to 18 hrs by CLSI protocol based method
# [21] = test system: Acinetobacter baumannii; test: Antibacterial activity against multi-drug resistant Acinetobacter baumannii clinical isolate 12 assessed as inhibition of bacterial growth incubated for 16 to 18 hrs by CLSI protocol based method
# [22] = test system: Acinetobacter baumannii; test: Antibacterial activity against multi-drug resistant Acinetobacter baumannii clinical isolate 10 assessed as inhibition of bacterial growth incubated for 16 to 18 hrs by CLSI protocol based method
# [23] = test system: Acinetobacter baumannii; test: Antibacterial activity against multi-drug resistant Acinetobacter baumannii 5-032 assessed as inhibition of bacterial growth incubated for 16 to 18 hrs by CLSI protocol based method
# [24] = test system: Acinetobacter baumannii; test: Antibacterial activity against Acinetobacter baumannii ATCC 17978 assessed as inhibition of bacterial growth incubated for 16 to 18 hrs by CLSI protocol based method
# [25] = test system: Acinetobacter baumannii; test: Antibacterial activity against multi-drug resistant Acinetobacter baumannii clinical isolate 11 assessed as inhibition of bacterial growth incubated for 16 to 18 hrs by CLSI protocol based method
# [26] = test system: Acinetobacter baumannii; test: Antibacterial activity against multi-drug resistant Acinetobacter baumannii NR-17777 assessed as inhibition of bacterial growth incubated for 16 to 18 hrs by CLSI protocol based method
# [27] = test system: Acinetobacter baumannii; test: Antibacterial activity against multi-drug resistant Acinetobacter baumannii clinical isolate 2 assessed as inhibition of bacterial growth incubated for 16 to 18 hrs by CLSI protocol based method
# [28] = test system: Acinetobacter baumannii; test: Antibacterial activity against multi-drug resistant Acinetobacter baumannii clinical isolate 9 assessed as inhibition of bacterial growth incubated for 16 to 18 hrs by CLSI protocol based method
# [29] = test system: Acinetobacter baumannii; test: Antibacterial activity against multi-drug resistant Acinetobacter baumannii clinical isolate 4 assessed as inhibition of bacterial growth incubated for 16 to 18 hrs by CLSI protocol based method
# [30] = test system: Acinetobacter baumannii; test: Antibacterial activity against multi-drug resistant Acinetobacter baumannii WL-136 assessed as inhibition of bacterial growth incubated for 16 to 18 hrs by CLSI protocol based method
compound,measurement,setting,value
O=C(CCN1C(=O)c2cccc3cccc(c23)C1=O)NNc1ccc(Cl)cc1Cl,MIC,[1],> 64 µg/mL
same,MIC,[2],> 64 µg/mL
same,MIC,[3],> 64 µg/mL
same,MIC,[4],> 64 µg/mL
same,MIC,[5],> 64 µg/mL
NC[C@H]1O[C@H](O[C@H]2[C@H](O)[C@@H](O[C@H]3O[C@H](CO)[C@@H](O)[C@H](N)[C@H]3O)[C@H](N)C[C@@H]2N)[C@H](N)C[C@@H]1O [TOBRAMYCIN],MIC,[3],4 µg/mL
N#Cc1ccc(NNC(=O)CCCN2C(=O)c3cccc4cccc(c34)C2=O)cc1,MIC,[1],> 64 µg/mL
same,MIC,[2],> 64 µg/mL
same,MIC,[3],2 µg/mL
same,MIC,[4],> 64 µg/mL
same,MIC,[5],> 64 µg/mL
O=C(NNc1ccc(Br)cc1)[C@@H](Cc1ccccc1)N1C(=O)c2cccc3cccc(c23)C1=O,MIC,[1],> 64 µg/mL
same,MIC,[2],> 64 µg/mL
same,MIC,[3],8 µg/mL
same,MIC,[4],> 64 µg/mL
same,MIC,[5],> 64 µg/mL
O=C(CCCCCN1C(=O)c2cccc3cccc(c23)C1=O)NNc1ccccc1,MIC,[1],> 64 µg/mL
same,MIC,[2],> 64 µg/mL
same,MIC,[3],8 µg/mL
same,MIC,[4],> 64 µg/mL
same,MIC,[5],> 64 µg/mL
O=C(CCN1C(=O)c2cccc3cccc(c23)C1=O)NNc1cccc(F)c1,MIC,[1],> 64 µg/mL
same,MIC,[2],> 64 µg/mL
same,MIC,[3],1 µg/mL
same,MIC,[4],> 64 µg/mL
same,MIC,[5],> 64 µg/mL
Cc1ccc(NNC(=O)CCN2C(=O)c3cccc4cccc(c34)C2=O)c(C)c1,MIC,[1],> 64 µg/mL
same,MIC,[2],> 64 µg/mL
same,MIC,[3],> 64 µg/mL
same,MIC,[4],> 64 µg/mL
same,MIC,[5],> 64 µg/mL
O=C(NNc1ccc(Cl)cc1)[C@@H](Cc1ccccc1)N1C(=O)c2cccc3cccc(c23)C1=O,MIC,[1],> 64 µg/mL
same,MIC,[2],> 64 µg/mL
same,MIC,[3],4 µg/mL
same,MIC,[4],> 64 µg/mL
same,MIC,[5],> 64 µg/mL
O=C(CCN1C(=O)c2cccc3cccc(c23)C1=O)NNc1ccccc1Cl,MIC,[1],> 64 µg/mL
same,MIC,[2],> 64 µg/mL
same,MIC,[3],> 64 µg/mL
same,MIC,[4],> 64 µg/mL
same,MIC,[5],> 64 µg/mL
NCC[C@H](O)C(=O)N[C@@H]1C[C@H](N)[C@@H](O[C@H]2O[C@H](CN)[C@@H](O)[C@H](O)[C@H]2O)[C@H](O)[C@H]1O[C@H]1O[C@H](CO)[C@@H](O)[C@H](N)[C@H]1O [AMIKACIN],MIC,[3],4 µg/mL
C[C@@H](O)[C@H]1C(=O)N2C(C(=O)O)=C(S[C@@H]3CN[C@H](C(=O)N(C)C)C3)[C@H](C)[C@H]12 [MEROPENEM],MIC,[6],4 µg/mL
same,MIC,[7],32 µg/mL
same,MIC,[8],64 µg/mL
same,MIC,[9],2 µg/mL
same,MIC,[10],16 µg/mL
same,MIC,[11],8 µg/mL
same,MIC,[12],16 µg/mL
same,MIC,[13],> 64 µg/mL
same,MIC,[3],16 µg/mL
same,MIC,[14],64 µg/mL
same,MIC,[15],1 µg/mL
same,MIC,[16],> 64 µg/mL
same,MIC,[17],> 64 µg/mL
same,MIC,[18],2 µg/mL
same,MIC,[19],4 µg/mL
same,MIC,[20],4 µg/mL
same,MIC,[21],> 64 µg/mL
same,MIC,[22],16 µg/mL
same,MIC,[23],4 µg/mL
same,MIC,[24],0.5 µg/mL
same,MIC,[25],64 µg/mL
same,MIC,[26],4 µg/mL
same,MIC,[27],32 µg/mL
same,MIC,[28],> 64 µg/mL
same,MIC,[29],32 µg/mL
same,MIC,[30],2 µg/mL
N#Cc1ccc(NNC(=O)[C@@H](Cc2ccccc2)N2C(=O)c3cccc4cccc(c34)C2=O)cc1,MIC,[1],> 64 µg/mL
same,MIC,[2],> 64 µg/mL
same,MIC,[3],16 µg/mL
same,MIC,[4],> 64 µg/mL
same,MIC,[5],> 64 µg/mL
O=C(CCN1C(=O)c2cccc3cccc(c23)C1=O)NNc1ccccc1Br,MIC,[1],> 64 µg/mL
same,MIC,[2],> 64 µg/mL
same,MIC,[3],> 64 µg/mL
same,MIC,[4],> 64 µg/mL
same,MIC,[5],> 64 µg/mL
Cc1ccc(NNC(=O)CCN2C(=O)c3cccc4cccc(c34)C2=O)cc1,MIC,[1],> 64 µg/mL
same,MIC,[2],> 64 µg/mL
same,MIC,[3],4 µg/mL
same,MIC,[4],> 64 µg/mL
same,MIC,[5],> 64 µg/mL
